The values that follow come from patent US9018236B2, “Cyclodextrin-based microemulsions, and dermatological uses thereof” (Precision Dermatology, Inc., priority 2012, dated 2015).

The conditions of data set [1]: cited from earlier work.
Data set [2] in a line: Solubility/dispersibility of retinol in the Labrasol-HPGCD-water microemulsion system. The following applies: final retinol concentration 1.2%; 15% Labrasol, 5% HPGCD in water. The format is physicochemical.
Description: Any two components (examples: Labrasol®-water, HPXCD-water, or Labrasol®-HPXCD) were mixed (in different ratios) in different scintillation vials and then the third component was titrated to each vial until a clear-to-turbid or turbid-to-clear transition occurred (in simple situations). Finally wt % percentages data for each component (Labrasol®, water, and cyclodextrin) were plotted to construct the ternary phase diagram.
Cyclodextrin used: hydroxypropyl-X-cyclodextrin (X=alpha, beta, or gamma).
Drug can be dissolved in the individual components or any of the two-component combination systems, followed by microemulsion formulation. Alternatively Drug can be directly added to the previously prepared microemulsion phase followed by shaking until a clear solution is achieved (when the achievable drug concentration is known previously).

For the compound `CC1=C(/C=C/C(C)=C/C=C/C(C)=C/CO)C(C)(C)CCC1` [Retinol], the miscibility in water entry in data set [1] is reported as “immiscible”. Further, the “miscibility in Labrasol-HPGCD-water microemulsion system” value in data set [2] is reported as “complete miscibility”.
